Results published in US11203592B2, “Inhibitors of indoleamine 2,3-dioxygenase and methods of their use” (BRISTOL-MYERS SQUIBB COMPANY, priority 2017, dated 2021).
Counter-ions that a name gives are not always drawn.

Each compound was assayed against T1, indoleamine 2,3-dioxygenase (IDO) (Homo sapiens, UniProt P14902) (assay: HeLa cell-based indoleamine 2,3-dioxygenase (IDO) assay, kynurenine production). Settings: HeLa cells, IFNγ 25 ng/mL, 48 hour incubation, kynurenine absorbance at 480 nm.
T1 construct: endogenous in cells; host or cells: HeLa (ATCC CCL-2), induced with IFNγ at 25 ng/mL
Method: Assessment of Inhibitor Activity in HeLa Cell-Based Indoleamine 2,3-dioxygenase (IDO) Assay:
HeLa (ATCC® CCL-2) cells were obtained from the ATCC® and cultured in Dulbecco's Modified Eagle Medium supplemented with 4.5 g/L glucose, […] (#10-013-CV, Corning), 2 mM L-alanyl-L-glutamine dipeptide (#35050-061, Gibco), 100U/mL penicillin, 100 μg/mL streptomycin (#SV30010, HyClone) and 10% fetal bovine serum (#SH30071.03 HyClone). Cells were maintained in a humidified incubator at 37° C. in 5% CO2.
IDO activity was assessed as a function of kynurenine production as follows: HeLa cells were seeded in a 96-well culture plate at a density of 5,000 cells/well and allowed to equilibrate overnight. After 24 hours, the media was aspirated and replaced with media containing IFNγ (#285-IF/CF, R&D Systems) at a final concentration of 25 ng/mL. A serial dilution of each test compound was added to the cells in a total volume of 200 μL of culture medium. After a further 48 hour incubation, 170 μL of supernatant was transferred from each well to a fresh 96-well plate. 12.1 μL of 6.1N trichloroacetic acid (#T0699, Sigma-Aldrich) was added to each well and mixed, followed by incubation at 65° C. for 20 minutes to hydrolyze N-formylkynurenine, the product of indoleamine 2,3-dioxygenase, to kynurenine. The reaction mixture was then centrifuged for 10 mins at 500×g to sediment the precipitate. 100 μL of the supernatant was transferred from each well to a fresh 96-well plate. 100 μl of 2% (w/v) p-dimethylaminobenzaldehyde (#15647-7, Sigma-Aldrich) in acetic acid (#A6283, Sigma-Aldrich) was added to each well mixed and incubated at room temperature for 20 inns. Kynurenine concentrations were determined by measuring absorbance at 480 nm and calibrating against an L-kynurenine (#K8625, Sigma-Aldrich) standard curve using a SPECTRAMAX® M2e microplate reader (Molecular Devices). The percentage activity at each inhibitor concentration was determined and IC50 values assessed using nonlinear regression.

T1 sequence (P14902 whole entry): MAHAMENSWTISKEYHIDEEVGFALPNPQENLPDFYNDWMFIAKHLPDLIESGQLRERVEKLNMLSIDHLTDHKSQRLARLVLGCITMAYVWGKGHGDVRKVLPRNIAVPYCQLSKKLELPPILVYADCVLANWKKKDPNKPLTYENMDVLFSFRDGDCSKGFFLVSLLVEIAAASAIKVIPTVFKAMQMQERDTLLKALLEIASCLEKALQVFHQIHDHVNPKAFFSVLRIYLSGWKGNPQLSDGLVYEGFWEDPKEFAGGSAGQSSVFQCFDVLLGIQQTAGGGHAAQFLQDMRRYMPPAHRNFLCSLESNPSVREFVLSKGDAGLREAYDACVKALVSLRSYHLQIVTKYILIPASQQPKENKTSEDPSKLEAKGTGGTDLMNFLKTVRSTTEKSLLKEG

Row | IC50 | Compound
1 | 45 nM | CC(NC(=O)c1ccc(Cl)cc1)[C@H]1CC[C@]2(CC1)OCc1ccccc12 (mixture of isomers) [Example 11, rac-N-(1-((1s,4s)-3′H-spiro[cyclohexane-1,1′-isobenzofuran]-4-yl)ethyl)-4-chlorobenzamide]
2 | 1300 nM | CC(C(=O)NC12CC3CC(CC(C3)C1)C2)[C@H]1CC[C@]2(CC1)OCc1ccccc12 (mixture of isomers) [Example 6, rac-N-((1R,3S)-Adamantan-1-yl)-2-((1S,4s)-3′H-spiro[cyclohexane-1,1′-isobenzofuran]-4-yl)propanamide]
3 | 92 nM | CC(C(=O)Nc1ccc(Cl)cc1)[C@H]1CC[C@]2(CC1)OCc1ccccc12 (mixture of isomers) [Example 5, N-(4-Chlorophenyl)-2-((1s,4s)-3′H-spiro[cyclohexane-1,1′-isobenzofuran]-4-yl)propanamide]
4 | 201 nM | CC(C(=O)NC12CC3CC(CC(C3)C1)C2)[C@H]1CC[C@@]2(CC1)OCc1ccccc12 (mixture of isomers) [Example 28, rac-N—((1R,3S)-Adamantan-1-yl)-2-((1R,4r)-3′H-spiro[cyclohexane-1,1′-isobenzofuran]-4-yl)propanamide]
5 | 1440 nM | CC(NC(=O)C12CC3CC(CC(C3)C1)C2)[C@H]1CC[C@]2(CC1)OCc1ccccc12 (mixture of isomers) [Example 12, rac-(1R,3S)—N-(1-((1S,4s)-3′H-spiro[cyclohexane-1,1′-isobenzofuran]-4-yl)ethyl)adamantane-1-carboxamide]
6 | 50 nM | CC(C(=O)Nc1ccc(Cl)cc1)[C@H]1CC[C@@]2(CC1)OCc1ccccc12 (mixture of isomers) [Example 4, rac-N-(4-Chlorophenyl)-2-((1r,4r)-3′H-spiro[cyclohexane-1,1′-isobenzofuran]-4-yl)propanamide]

The compounds below were run against T2, human IDO1 (Homo sapiens, UniProt P14902) (assay: human IDO1/HEK293 cell IDO inhibition assay). Settings: HEK293 cells stably expressing human IDO1, 20 hours incubation, absorbance at 490 nm; read-out: IDO1 HEK Human IC50.
T2 construct: expressed in transfected cells
Format: cell-based
Method: HEK293 cells were transfected with a pCDNA-based mammalian expression vector harboring human IDO1 cDNA (NM 002164.2) by electroporation. They were cultured in medium (DMEM with 10% FBS) containing 1 mg/ml G418 for two weeks. Clones of HEK293 cells that stably expressed human IDO1 protein were selected and expanded for IDO inhibition assay.
The human IDO1/HEK293 cells were seeded at 10,000 cells per 50 μL per well with RPMI/phenol red free media contains 10% FBS in a 384-well black wall clear bottom tissue culture plate (Matrix Technologies LLC) 100 nL of certain concentration of compound was then added to each well using ECHO liquid handling systems. The cells were incubated for 20 hours in 37° C. incubator with 5% CO2.
The compound treatments were stopped by adding trichloroacetic acid (Sigma-Aldrich) to a final concentration at 0.2%. The cell plate was further incubated at 50° C. for 30 minute. The equal volume supernatant (20 μL) and 0.2% (w/v) Ehrlich reagent (4-dimethylaminobenzaldehyde, Sigma-Aldrich) in glacial acetic acid were mixed in a new clear bottom 384-well plate. This plate was then incubated at room temperature for 30 minute. The absorbance at 490 nm was measured on Envision plate reader.
Compound IC50 values were calculated using the counts of 500 nM of a reference standard treatment as one hundred percent inhibition, and counts of no compound but DMSO treatment as zero percent inhibition.

T2 sequence (P14902 whole entry): as above

Row | IC50 | Compound
7 | 617 nM | Cc1cccc2c1[C@]1(CC[C@H](C(C)C(=O)NC34CC5CC(CC(C5)C3)C4)CC1)OC2 (mixture of isomers) [Example 9, rac-N-((1R,3S)-adamantan-1-yl)-2-((1S,4s)-7′-methyl-3′H-spiro[cyclohexane-1,1′-isobenzofuran]-4-yl)propanamide]
8 | 117 nM | CC(c1nc2ncc(Cl)cc2[nH]1)[C@H]1CC[C@@]2(CC1)COc1ccccc12 (mixture of isomers) [Example 24, rac-2-(1-((1′r,4′r)-2H-Spiro[benzofuran-3,1′-cyclohexan]-4′-yl)ethyl)-6-chloro-1H-imidazo[4,5-b]pyridine TFA Salt]
9 | 8 nM | C[C@@H](C(=O)Nc1ccc(Cl)cc1)[C@H]1CC[C@@]2(CC1)COc1ccccc12 [Example 16, (R)—N-(4-Chlorophenyl)-2-((1′R,4′r)-2H-spiro[benzofuran-3,1′-cyclohexan]-4′-yl)propanamide]
10 | 43 nM | C[C@H](c1nc2ncc(Cl)cc2[nH]1)[C@H]1CC[C@@]2(CC1)COc1ccccc12 [Example 26, 2-((S)-1-((3S,4′r)-2H-spiro[benzofuran-3,1′-cyclohexan]-4′-yl)ethyl)-6-chloro-1H-imidazo[4,5-b]pyridine]
11 | 24 nM | Cc1cccc2c1[C@]1(CC[C@H](C(C)C(=O)Nc3ccc(Cl)cc3)CC1)OC2 (mixture of isomers) [Example 8, rac-N-(4-chlorophenyl)-2-((1s,4s)-7′-methyl-3′H-spiro[cyclohexane-1,1′-isobenzofuran]-4-yl)propanamide]
12 | 61 nM | CC(C(=O)Nc1ccc(Cl)cc1)[C@H]1CC[C@]2(CC1)COc1ccccc12 (mixture of isomers) [Example 20, rac-N-(4-Chlorophenyl)-2-((1′s,4′s)-2H-spiro[benzofuran-3,1′-cyclohexan]-4′-yl)propanamide]
13 | 68 nM | Cc1cccc2c1OC(CO)[C@]21CC[C@H](CC(=O)Nc2ccc(Cl)cc2)CC1 (mixture of isomers) [Example 29, rac-N-(4-Chlorophenyl)-2-((1′r,2R,4′R)-2-(hydroxymethyl)-7-methyl-2H-spiro[benzofuran-3,1′-cyclohexan]-4′-yl)acetamide]
14 | 93 nM | CC(NC(=O)c1ccc(C#N)cc1)[C@H]1CC[C@]2(CC1)COc1ccccc12 (mixture of isomers) [Example 27, rac-N-(1-((1′s,4′s)-2H-Spiro[benzofuran-3,1′-cyclohexan]-4′-yl)ethyl)-4-cyanobenzamide]
15 | 142 nM | C[C@@H](c1nc2ccc(Cl)cc2[nH]1)[C@H]1CC[C@@]2(CC1)COc1ccccc12 [Example 22, 2-((R)-1-((3R,4′r)-2H-spiro[benzofuran-3,1′-cyclohexan]-4′-yl)ethyl)-6-chloro-1H-benzo[d]imidazole]
16 | 9 nM | C[C@@H](NC(=O)c1ccc(Cl)cc1)[C@H]1CC[C@@]2(CC1)COc1ccccc12 [Example 18, N—((R)-1-((1′R,4′r)-2H-Spiro[benzofuran-3,1′-cyclohexan]-4′-yl)ethyl)-4-chlorobenzamide]
17 | 59 nM | CC(NC(=O)c1ccc(Cl)cc1)[C@H]1CC[C@@]2(CC1)COc1ccccc12 (mixture of isomers) [Example 17, rac-N-(1-((1′r,4′r)-2H-Spiro[benzofuran-3,1′-cyclohexan]-4′-yl)ethyl)-4-chlorobenzamide]
18 | 37 nM | Cc1cccc2c1[C@]1(CC[C@@H](C(C)C(=O)Nc3ccc(Cl)cc3)CC1)OC2 (mixture of isomers) [Example 7, rac-N-(4-Chlorophenyl)-2-((1r,4r)-7′-methyl-3′H-spiro[cyclohexane-1,1′-isobenzofuran]-4-yl)propanamide]
19 | 794 nM | C[C@@H](c1nc2ncc(Cl)cc2[nH]1)[C@H]1CC[C@@]2(CC1)COc1ccccc12 [Example 25, 2-((R)-1-((3R,4′r)-2H-spiro[benzofuran-3,1′-cyclohexan]-4′-yl)ethyl)-6-chloro-1H-imidazo[4,5-b]pyridine]
20 | 5 nM | CC(C(=O)Nc1ccc(Cl)cc1)[C@H]1CC[C@@]2(CC1)COc1ccccc12 (mixture of isomers) [Example 14, rac-N-(4-Chlorophenyl)-2-((1′r,4′r)-2H-spiro[benzofuran-3,1′-cyclohexan]-4′-yl)propanamide]
21 | 254 nM | C[C@H](c1nc2ccc(Cl)cc2[nH]1)[C@H]1CC[C@@]2(CC1)COc1ccccc12 [Example 23, 2-((S)-1-((3S,4′r)-2H-spiro[benzofuran-3,1′-cyclohexan]-4′-yl)ethyl)-6-chloro-1H-benzo[d]imidazole]
22 | 363 nM | Cc1cccc2c1OC(CO)[C@]21CC[C@@H](CC(=O)Nc2ccc(Cl)cc2)CC1 (mixture of isomers) [Example 30, rac-N-(4-Chlorophenyl)-2-((1′s,2R,4′S)-2-(hydroxymethyl)-7-methyl-2H-spiro[benzofuran-3,1′-cyclohexan]-4′-yl)acetamide]
23 | 914 nM | C[C@H](NC(=O)c1ccc(Cl)cc1)[C@H]1CC[C@@]2(CC1)COc1ccccc12 [Example 19, N—((S)-1-((1'S,4′r)-2H-Spiro[benzofuran-3,1′-cyclohexan]-4′-yl)ethyl)-4-chlorobenzamide]
24 | 59 nM | CC(NC(=O)c1ccc(Cl)cc1)[C@H]1CC[C@]2(CC1)COc1ccccc12 (mixture of isomers) [Example 21, rac-N-(1-((1′s,4′s)-2H-Spiro[benzofuran-3,1′-cyclohexan]-4′-yl)ethyl)-4-chlorobenzamide]
25 | 980 nM | Cc1cccc2c1[C@]1(CC[C@H](C(C)C(=O)NC3(C)CCCCC3)CC1)OC2 (mixture of isomers) [Example 10, rac-2-((1s,4s)-7′-methyl-3′H-spiro[cyclohexane-1,1′-isobenzofuran]-4-yl)-N-(1-methylcyclohexyl)propanamide]
